Data: patent publication US20200270309A1, “MALEIMIDE GROUP-MODIFIED ANGIOGENESIS INHIBITOR HM-1 AND USE THEREOF” (NANJING ANJI BIOLOGICAL TECHNOLOGY CO., LTD, priority 2017, published 2020)
Marks after values point to notes of the source that are not given here. Peptide text beside a SMILES is read from it. * marks the point of attachment. X52 = O=C1C=CC(=O)N1c1ccccc1CCCCCCCC(=O)*; X63 = O=C1C=CC(=O)N1c1ccccc1CCCCCCC(=O)*; X49 = O=C1C=CC(=O)N1c1ccccc1CCCCCC(=O)*

Assays:
HUVECs = assay: Transwell migration inhibition on HUVECs; assay type: cell-based, human; settings: for Inhibition rate (%): HUVEC migration vs blank control; for Cell migration number (Mean ± SD): HUVECs, transwell, 24 h
[1] = test system: IL-1β production by mouse peritoneal macrophages; assay: IL-1β production by mouse peritoneal macrophages (ELISA); assay type: cell-based; settings: for Inhibition rate: IL-1β production, vs model group; for IL-1β: mouse peritoneal macrophages, 48 h, ELISA
Description: Mice were injected intraperitoneally with 1 mL of broth culture medium (containing 6% of starch). Three days later, mice peritoneal macrophages were taken aseptically and washed twice with 1640 culture medium, and the cell concentration was adjusted to 2×10^6 cells/mL. The solutions were injected into 24-well culture plates at 1 mL per well. The cells were incubated in a cell incubator for 3 h and vibrated once every 30 min to make the cells fully adhere to the wall. Then, the cells were washed twice with a culture solution to remove non-adhered cells. PBS was added to the blank group, positive drug Dex was added to the positive group, no drug was added to the model group, and polypeptides X1-X90 with low, medium and high concentrations were added to the test groups; and the cells were continuously cultured for 48 h after administration, and then centrifuged at 1000 r/min for 15 min. The supernatant was collected as a sample to be tested for IL-1β activity.

[2] = test system: xylene-induced ear swelling; assay: Xylene-induced mouse ear swelling; assay type: in vivo; settings: Kunming mice, injected once a day for 5 days; for Swelling degree (mg) / Swelling degree: right minus left ear piece weight 2 h after xylene; for Inhibition rate (%): xylene-induced ear swelling
Description: Kunming mice were taken, a normal saline group was taken as a blank control group, an aspirin group (200 mg/kg) was taken as a positive control group, and X1-X90 administration groups were taken as test groups. The mice were injected once a day for 5 consecutive days. The blank control group was given an equal volume of normal saline. One hour after the last administration, 0.05 mL of xylene was applied to both sides of the right ear of each mouse to cause inflammation, while no drug was applied to the left ear as a normal ear. Two hours later, the mice were put to death by dislocation. Two ears were cut along the auricle. Ear pieces were taken with a puncher and weighed, and the swelling degree and the swelling rate were calculated. Swelling degree=right ear piece weight-left ear piece weight, swelling rate=(swelling degree/left ear piece weight)*100%. Statistical t-test was conducted on the experimental results. *P<0.05 indicates significant difference, and **P<0.01 indicates extremely significant difference.

[3] = test system: carrageenan-induced toe swelling; assay: Carrageenan-induced toe swelling in rats; assay type: in vivo; settings: SD rats; for Swelling degree 1 h: 1 h after carrageenan; for Swelling degree 3 h: 3 h after carrageenan; for Swelling degree 5 h: 5 h after carrageenan; for Swelling degree 7 h: 7 h after carrageenan
Description: The rats were injected once a day, and the model group was given the same volume of normal saline for 3 d and fed normally. […] The foot swelling degree was calculated according to the following formula: foot swelling degree (mL)=foot volume after inflammation-foot volume before inflammation. The number of milliliters of overflow liquid was recorded (method: a ballpoint pen is used to circle the protruding point of the right joint as a measurement mark, and the right hind feet of each rat are sequentially placed into the volume measurer, so that the hind limbs are exposed outside the barrel, and the immersion depth is at the coincidence of the circle and the liquid level. After the foot enters the liquid, the liquid level rises, and the volume of overflow liquid is the volume of the right hind foot of the rat, and the normal volume of the right hind foot of each rat is measured in sequence).

[4] = test system: choroidal neovascularization; assay: Choroidal neovascularization in rats (laser photocoagulation, FFA); assay type: in vivo; settings: BN rats
Description: 6-8 weeks male BN rats were fully anesthetized by intraperitoneal injection of 846 compound anesthetic with a concentration of 0.5 mL/kg. Compound tropicamide eye drops were used once 5 min before laser photocoagulation to fully dilate the pupils of both eyes. The animals were fixed and subjected to krypton laser photocoagulation equidistantly around an optic disc with the aid of a −53.00D corneal contact lens at a distance of 2PD from the optic disc. A total of 8 photocoagulation spots were obtained. The laser wavelength was 647.1 nm, the power was 350 mW, and the diameter and time of the photocoagulation spots were 50 μm and 0.05 s respectively. Fundus photography was performed immediately after photocoagulation. FFA, histopathology and transmission electron microscopy were performed on the days 3, 7, 14, 21 and 28 after photocoagulation respectively.
Through fundus photography and FFA examination, it was confirmed that the fluorescein leakage of the photocoagulation spot reached its peak on day 21 after photocoagulation. At the same time, histopathological examination was carried out.
Rats with successful modeling were randomly grouped, with 5 rats in each group. The groups were marked as a negative control group and X1-X90 treatment groups respectively. The rats were injected with normal saline and X1-X90 (the doses of X1-X90 were each 0.05 μM) in the vitreous chamber once a day for 1 week. FFA examination was carried out 3 days, 7 days, 14 days and 28 days after administration.

[5] = day 3 after administration, total light spot number was 297, 0.05 μM in the vitreous chamber once a day for 1 week
[6] = day 7 after administration, total light spot number was 186, 0.05 μM in the vitreous chamber once a day for 1 week
[7] = day 14 after administration, total light spot number was 137, 0.05 μM in the vitreous chamber once a day for 1 week
[8] = day 28 after administration, total light spot number was 69, 0.05 μM in the vitreous chamber once a day for 1 week

Row | SMILES | Inhibition rate (%) (HUVECs; dose 0.05 μM) | Inhibition rate (%) (HUVECs; dose 0.1 μM) | Inhibition rate (%) (HUVECs; dose 0.2 μM) | Inhibition rate ([1]; dose 0.05 μM) | IL-1β ([1]; dose 0.05 μM) | Inhibition rate ([1]; dose 0.1 μM) | IL-1β ([1]; dose 0.1 μM) | Inhibition rate ([1]; dose 0.2 μM) | IL-1β ([1]; dose 0.2 μM) | Inhibition rate (%) ([2]; dose 2 mg/kg) | Inhibition rate (%) ([2]; dose 4 mg/kg) | Swelling degree (mg) ([2]; dose 8 mg/kg) | Inhibition rate (%) ([2]; dose 8 mg/kg) | Swelling degree 1 h ([3]; 2.0 mg/kg once a day for 3 d) | Swelling degree 3 h ([3]; 2.0 mg/kg once a day for 3 d) | Swelling degree 5 h ([3]; 2.0 mg/kg once a day for 3 d) | Swelling degree 7 h ([3]; 2.0 mg/kg once a day for 3 d) | Swelling degree 1 h ([3]; 4.0 mg/kg once a day for 3 d) | Swelling degree 3 h ([3]; 4.0 mg/kg once a day for 3 d) | Swelling degree 5 h ([3]; 4.0 mg/kg once a day for 3 d) | further results
1 | C[C@H](NC(=O)CNC(=O)[C@H](CCCNC(=N)N)NC(=O)CCCCCc1ccccc1N1C(=O)C=CC1=O)C(=O)N[C@@H](CC(=O)O)C(=O)N[C@@H](CCCNC(=N)N)C(=O)N[C@@H](C)C(=O)NCC(=O)NCC(=O)NCC(=O)NCC(=O)N[C@@H](CCCNC(=N)N)C(=O)NCC(=O)N[C@@H](CC(=O)O)C(=O)O [X17] (X49-RGADRAGGGGRGD-OH) | 48.96% | 54.89% | 57.52% | 16.02% | 790.35 ± 11.07 pg/mL | 43.57% | 531.11 ± 17.61 pg/mL | 43.90% | 528.00 ± 10.53 pg/mL | 25.36% | 28.89% | 3.53 ± 0.1** mg | 43.34% | 0.27 ± 0.15 mg | 0.32 ± 0.14 mg | 0.38 ± 0.17 mg | 0.35 ± 0.19 mg | 0.24 ± 0.12 mg | 0.31 ± 0.19 mg | 0.37 ± 0.17 mg | Cell migration number (Mean ± SD) (HUVECs; dose 0.05 μM): 547.07 ± 50.72; Cell migration number (Mean ± SD) (HUVECs; dose 0.1 μM): 483.55 ± 66.46; Cell migration number (Mean ± SD) (HUVECs; dose 0.2 μM): 455.35 ± 68.52; Swelling degree (mg) ([2]; dose 2 mg/kg): 4.65 ± 0.79* mg; Swelling degree (mg) ([2]; dose 4 mg/kg): 4.43 ± 0.75* mg; Swelling degree 7 h ([3]; 4.0 mg/kg once a day for 3 d): 0.34 ± 0.15 mg; CNV Incidence (%) [4, 5]: 54.88%; Leakage Light spot number [4, 5]: 163; CNV Incidence (%) [4, 6]: 48.39%; Leakage Light spot number [4, 6]: 90; CNV Incidence (%) [4, 7]: 42.34%; Leakage Light spot number [4, 7]: 58; CNV Incidence (%) [4, 8]: 40.58%; Leakage Light spot number [4, 8]: 28
2 | C[C@H](NC(=O)CNC(=O)[C@H](CCCNC(=N)N)NC(=O)CCCCCCc1ccccc1N1C(=O)C=CC1=O)C(=O)N[C@@H](CC(=O)O)C(=O)N[C@@H](CCCNC(=N)N)C(=O)N[C@@H](C)C(=O)NCC(=O)NCC(=O)NCC(=O)NCC(=O)N[C@@H](CCCNC(=N)N)C(=O)NCC(=O)N[C@@H](CC(=O)O)C(=O)O [X18] (X63-RGADRAGGGGRGD-OH) | 40.73% | 41.02% | 44.55% | 23.36% | 721.31 ± 12.75 pg/mL | 23.86% | 716.58 ± 16.56 pg/mL | 27.40% | 683.26 ± 19.63 pg/mL | 13.00% | 15.25% | 4.18 ± 0.9** mg | 32.91% | 0.23 ± 0.18 mg | 0.33 ± 0.16 mg | 0.36 ± 0.15 mg | 0.32 ± 0.13 mg | 0.24 ± 0.17 mg | 0.39 ± 0.18 mg | 0.45 ± 0.15 mg | Cell migration number (Mean ± SD) (HUVECs; dose 0.05 μM): 635.26 ± 59.22; Cell migration number (Mean ± SD) (HUVECs; dose 0.1 μM): 632.13 ± 55.39; Cell migration number (Mean ± SD) (HUVECs; dose 0.2 μM): 594.30 ± 45.38; Swelling degree ([2]; dose 2 mg/kg): 5.42 ± 0.18 mg; Swelling degree ([2]; dose 4 mg/kg): 5.28 ± 0.46 mg; Swelling degree 7 h ([3]; 4.0 mg/kg once a day for 3 d): 0.33 ± 0.12 mg; CNV Incidence (%) [4, 5]: 53.87%; Leakage Light spot number [4, 5]: 160; CNV Incidence (%) [4, 6]: 46.24%; Leakage Light spot number [4, 6]: 86; CNV Incidence (%) [4, 7]: 45.99%; Leakage Light spot number [4, 7]: 63; CNV Incidence (%) [4, 8]: 44.93%; Leakage Light spot number [4, 8]: 31
3 | C[C@H](NC(=O)CNC(=O)[C@H](CCCNC(=N)N)NC(=O)CCCCCCCc1ccccc1N1C(=O)C=CC1=O)C(=O)N[C@@H](CC(=O)O)C(=O)N[C@@H](CCCNC(=N)N)C(=O)N[C@@H](C)C(=O)NCC(=O)NCC(=O)NCC(=O)NCC(=O)N[C@@H](CCCNC(=N)N)C(=O)NCC(=O)N[C@@H](CC(=O)O)C(=O)O [X19] (X52-RGADRAGGGGRGD-OH) | 40.99% | 46.77% | 54.44% | 37.19% | 591.13 ± 10.54 pg/mL | 37.27% | 590.42 ± 10.34 pg/mL | 37.39% | 589.21 ± 12.08 pg/mL | 20.06% | 36.28% | 3.8 ± 0.03** mg | 39.00% | 0.21 ± 0.13 mg | 0.33 ± 0.15 mg | 0.36 ± 0.17 mg | 0.32 ± 0.12 mg | 0.26 ± 0.11 mg | 0.38 ± 0.17 mg | 0.42 ± 0.15 mg | Swelling degree (mg) ([2]; dose 2 mg/kg): 4.98 ± 0.72* mg; Swelling degree (mg) ([2]; dose 4 mg/kg): 3.97 ± 0.61** mg; Swelling degree 7 h ([3]; 4.0 mg/kg once a day for 3 d): 0.32 ± 0.18 mg; CNV Incidence (%) [4, 5]: 52.19%; Leakage Light spot number [4, 5]: 155; CNV Incidence (%) [4, 6]: 45.70%; Leakage Light spot number [4, 6]: 85; CNV Incidence (%) [4, 7]: 41.61%; Leakage Light spot number [4, 7]: 57; CNV Incidence (%) [4, 8]: 44.93%; Leakage Light spot number [4, 8]: 31
